# Earlier results, collected in publication PMC7504348 (Molecules, 2020).
# Test system: AChE
# Settings: dataset for 2D-QSAR model, Ellman's method, galantamine as reference; cited from earlier work
row,Structure (SMILES),"pIC50 (AChE dataset, Table S4)"
1,Cc1nccc2c1[nH]c1ccccc12 [CHEMBL12014],4.23
2,CC1=NCCc2c1[nH]c1cc(O)ccc21 [CHEMBL129177],4.47
3,c1ccc(CNc2ccccc2)cc1 [CHEMBL237223],4.59
4,CCOC(=O)c1c(C)nc2nc3c(c(N)c2c1-c1ccccc1)CCCC3 [CHEMBL253386],5.49
5,COc1ccc2c(c1)[nH]c1c(C)nccc12 [CHEMBL269538],4.19
6,COc1ccc2c3c([nH]c2c1)C(C)=NCC3 [CHEMBL340807],4.80
7,CN(C)CCc1c[nH]c2ccc(O)cc12 [CHEMBL416526],4.94
8,OC[C@H]1O[C@@H](Oc2ccc(/C=N/O)cc2)[C@H](O)[C@@H](O)[C@@H]1O [CHEMBL457684],4.78
9,CO/N=C\c1ccc(O[C@@H]2O[C@H](COC(C)=O)[C@@H](OC(C)=O)[C@H](OC(C)=O)[C@H]2OC(C)=O)cc1 [CHEMBL463856],4.33
10,O=C(O[C@H]1[C@H](Oc2ccc(/C=N/O)cc2)OC[C@@H](OC(=O)c2ccccc2)[C@H]1OC(=O)c1ccccc1)c1ccccc1 [CHEMBL500712],4.40
11,COc1cc2ccnc3c2c(c1OC)-c1ccccc1C3=O [CHEMBL510090],4.72
12,CC(=O)OC[C@H]1O[C@@H](Oc2ccc(/C=N/NC(N)=S)cc2)[C@H](OC(C)=O)[C@@H](OC(C)=O)[C@@H]1OC(C)=O [CHEMBL517342],4.19
13,CCN(CC)Cc1ccc(OCCCCCCCCCCN2CCCCC2)cc1 [CHEMBL1085869],5.67
14,COc1cccc2c1C(=O)c1c(C)cc(=O)[nH]c1C2=O [CHEMBL1269160],4.57
15,COc1cc2c(cc1O)C=[N+](C)CC2.O=C([O-])C(F)(F)F [CHEMBL1270150],4.73
16,COc1cc2c(cc1O)C[N@+]1(C)CCc3cc(OC)c(OC)cc3[C@@H]1C2 [CHEMBL1270255],5.01
17,COc1ccc2c(ccc[n+]2C)c1.[I-] [CHEMBL2018160],4.63
18,CCc1ccc(N(Cc2ccc(C)cc2)C(=O)/C=C/C(=O)N(Cc2ccc(C)cc2)c2ccc(CC)cc2)cc1 [CHEMBL2296112],4.25
19,CCc1ccc(N(Cc2ccccc2)C(=O)/C=C/C(=O)N(Cc2ccccc2)c2ccc(CC)cc2)cc1 [CHEMBL2296113],4.21
20,CCOc1ccc(N(Cc2ccccc2)C(=O)/C=C/C(=O)N(Cc2ccccc2)c2ccc(OCC)cc2)cc1 [CHEMBL2296117],4.18
21,Cc1ccc(CN(C(=O)/C=C/C(=O)N(Cc2ccc(C)cc2)c2ccc(F)cc2)c2ccc(F)cc2)cc1 [CHEMBL2296124],4.33
22,Cc1ccc(CN(C(=O)/C=C/C(=O)N(Cc2ccc(C)cc2)c2ccc(I)cc2)c2ccc(I)cc2)cc1 [CHEMBL2296125],4.46
23,CC(C)[C@H](NC(=O)OCC(Cl)(Cl)Cl)C(=O)N[C@H](C)c1nc2ccc(F)cc2s1 [CHEMBL2334725],4.70

row,Structure (SMILES),"pIC50 (AChE dataset, Table S4)"
1,CC(C)[C@H](NC(=O)OCC(F)(F)F)C(=O)N[C@H](C)c1nc2ccc(F)cc2s1 [CHEMBL2334726],4.49
2,CC(C)[C@H](NC(=O)OCC(F)(F)C(F)F)C(=O)N[C@H](C)c1nc2ccc(F)cc2s1 [CHEMBL2334727],4.72
3,CC(C)[C@H](NC(=O)OCC(F)(F)C(F)(F)C(F)(F)F)C(=O)N[C@H](C)c1nc2ccc(F)cc2s1 [CHEMBL2334728],4.24
4,CCC[C@H](NC(=O)OCC)C(=O)N[C@H](C)c1nc2ccc(F)cc2s1 [CHEMBL2334730],4.64
5,CCC[C@H](NC(=O)OC(C)C)C(=O)N[C@H](C)c1nc2ccc(F)cc2s1 [CHEMBL2334732],4.86
6,CCC[C@H](NC(=O)OCC(Cl)(Cl)Cl)C(=O)N[C@H](C)c1nc2ccc(F)cc2s1 [CHEMBL2334736],4.72
7,CCC[C@H](NC(=O)OCC(F)(F)F)C(=O)N[C@H](C)c1nc2ccc(F)cc2s1 [CHEMBL2334737],4.71
8,CCC[C@H](NC(=O)OCC(F)(F)C(F)F)C(=O)N[C@H](C)c1nc2ccc(F)cc2s1 [CHEMBL2334738],4.69
9,CCC[C@H](NC(=O)OCC(F)(F)C(F)(F)C(F)(F)F)C(=O)N[C@H](C)c1nc2ccc(F)cc2s1 [CHEMBL2334739],4.52
10,CC(C)COC(=O)N[C@H](C(=O)N[C@H](C)c1nc2ccc(F)cc2s1)C(C)C [CHEMBL2334745],4.49
11,CC(C)[C@H](NC(=O)OCCBr)C(=O)N[C@H](C)c1nc2ccc(F)cc2s1 [CHEMBL2334747],4.51
12,COc1cc(CCC(=O)C2=C(CCc3ccc(O)c(OC)c3)NC(=O)NC2c2ccc(O)cc2)ccc1O (centres unmarked) [CHEMBL2381433],4.58
13,COc1ccc(C2NC(=O)NC(CCc3ccc(O)c(OC)c3)=C2C(=O)CCc2ccc(O)c(OC)c2)cc1 (centres unmarked) [CHEMBL2381434],4.67
14,COc1ccccc1/C=C1\CNCC2=C1NC(=O)NC2c1ccccc1OC (centres unmarked) [CHEMBL2385766],4.35
15,O=C1NC2=C(CNC/C2=C\c2ccc(Br)cc2)C(c2ccc(Br)cc2)N1 (centres unmarked) [CHEMBL2385768],4.75
16,O=C1NC2=C(CNC/C2=C\c2ccc(F)cc2)C(c2ccc(F)cc2)N1 (centres unmarked) [CHEMBL2385771],4.30
17,O=C1NC2=C(CNC/C2=C\c2ccc(Cl)cc2Cl)C(c2ccc(Cl)cc2Cl)N1 (centres unmarked) [CHEMBL2385772],4.48
18,O=C1NC2=C(CNC/C2=C\c2cccc3ccccc23)C(c2cccc3ccccc23)N1 (centres unmarked) [CHEMBL2385773],4.83
19,Fc1ccccc1/C=C1\CNCC2=C1NC(=S)NC2c1ccccc1F (centres unmarked) [CHEMBL2385777],4.34
20,O=[N+]([O-])c1cccc(/C=C2\CNCC3=C2NC(=S)NC3c2cccc([N+](=O)[O-])c2)c1 (centres unmarked) [CHEMBL2385779],4.42
21,S=C1NC2=C(CNC/C2=C\c2ccc(Br)cc2)C(c2ccc(Br)cc2)N1 (centres unmarked) [CHEMBL2385780],4.88
22,S=C1NC2=C(CNC/C2=C\c2ccc(Cl)cc2Cl)C(c2ccc(Cl)cc2Cl)N1 (centres unmarked) [CHEMBL2385784],4.53
23,COC(=O)[C@@H]1CCCN1CCCCCOc1ccc2c(=O)cc(-c3ccccc3)oc2c1C [CHEMBL2393074],4.75

row,Structure (SMILES),"pIC50 (AChE dataset, Table S4)"
1,NCCc1c(C(c2c[nH]c3ccccc23)C(O)CO)[nH]c2ccc(O)cc12 (centres unmarked) [CHEMBL3125443],4.90
2,CCN(CC)Cc1cccc2oc3cc(OC)ccc3c12 [CHEMBL3127043],4.98
3,COc1ccc2c(c1)[nH]c1cccc(CNC(C)C)c12 [CHEMBL3127216],4.84
4,CCN(CC)Cc1cccc2[nH]c3cc(OC)ccc3c12 [CHEMBL3127217],4.99
5,CC(C)NCc1cccc2[nH]c3cc(O)ccc3c12 [CHEMBL3127219],4.92
6,COc1cc(/C=C/c2ccc(OCCCCCCN(C)Cc3ccccc3)cc2)cc(OC)c1 [CHEMBL3132866],4.98
7,CCCN(CCC)CCCCCCOc1ccc(/C=C/c2cc(OC)cc(OC)c2)cc1 [CHEMBL3133243],4.97
8,COc1cc(/C=C/c2ccc(OCCCCCCN3CCCCC3)cc2)cc(OC)c1 [CHEMBL3133245],5.36
9,COc1cc(/C=C/c2ccc(OCCCCCCN3CCCCC3C)cc2)cc(OC)c1 (centres unmarked) [CHEMBL3133246],5.45
10,COc1cc(/C=C/c2ccc(OCCCCCCN3CCC(O)CC3)cc2)cc(OC)c1 [CHEMBL3133247],4.81
11,COc1cc(/C=C/c2ccc(OCCCCCCN3CCOCC3)cc2)cc(OC)c1 [CHEMBL3133248],4.66
12,COc1cc(/C=C/c2ccc(OCCCN(C)Cc3ccccc3)cc2)cc(OC)c1 [CHEMBL3133250],4.29
13,COc1ccccc1NC(=O)Nc1nc(-c2cc3ccccc3o2)cs1 [CHEMBL3617362],4.22
14,O=C(Nc1nc(-c2cc3ccccc3o2)cs1)Nc1ccccc1[N+](=O)[O-] [CHEMBL3617367],4.38
15,O=C(Nc1nc(-c2cc3ccccc3o2)cs1)Nc1ccccc1F [CHEMBL3617370],4.51
16,O=C(Nc1ccc(F)cc1)Nc1nc(-c2cc3ccccc3o2)cs1 [CHEMBL3617372],4.26
17,O=C(Nc1ccc(Cl)c(Cl)c1)Nc1nc(-c2cc3ccccc3o2)cs1 [CHEMBL3617375],4.28
18,COc1ccc(NC(=O)Nc2nc(-c3cc4cc(Br)ccc4o3)cs2)cc1 [CHEMBL3617380],4.49
19,Cc1ccc(NC(=O)Nc2nc(-c3cc4cc(Br)ccc4o3)cs2)cc1 [CHEMBL3617381],4.49
20,O=C(Nc1ccccc1)Nc1nc(-c2cc3cc(Br)ccc3o2)cs1 [CHEMBL3617382],4.63
21,O=C(Nc1ccc(F)cc1)Nc1nc(-c2cc3cc(Br)ccc3o2)cs1 [CHEMBL3617388],4.45
22,COc1ccc(NC(=O)Nc2nc(-c3cc4cc([N+](=O)[O-])ccc4o3)cs2)cc1 [CHEMBL3617393],4.47
